Values quoted from earlier work, collected in US20110293714A1, “PHARMACEUTICAL COMPOSITIONS SUITABLE FOR ORAL ADMINISTRATION OF DERIVATIZED INSULIN PEPTIDES” (priority 2008, published 2011).

Details: 293.2 Kelvin; static electric fields or relatively low frequencies

SMILES	Dielectric constant, ∈*
CC(O)CCO (stereo not shown) [1,3-butanediol]	28.8
OCCCO [1,3-propanediol]	35.1
CCO [Ethanol]	25.3
CC(C)O [Isopropanol]	20.18
CO [Methanol]	33.0
O [Water]	80.1

Same assay, conditions: 303.2 Kelvin; static electric fields or relatively low frequencies

SMILES	Dielectric constant, ∈*
CC(O)CO (stereo not shown) [1,2-propanediol [propylene glycol], 1,2-propanediol]	27.5
